{"source": "patent US10564093B2", "about": "“Single injection competition assays” (Molecular Devices, LLC, priority 2015, dated 2020)", "tested_on": "Carbonic anhydrase II enzyme", "assay": "SPR single injection competitive binding analysis of CBS in the presence of Furosemide", "method": "The binding interaction analysis was carried out using a SPR cell having a sensing region wherein the bound ligand is Carbonic anhydrase II enzyme immobilized on the surface of the biosensor via amine coupling to ˜6500 RU. […] According to the method described above, the dispersion gradient was prepared by initially aspirating, pulling, the Furosemide into the sample holding line followed by pulling the buffer into the sample holding line. […] The dispersion gradient of CBS was prepared using 200 μl of a 2 μM of CBS and 100 μl of buffer. The dispersion gradient of CBS in buffer was prepared by initially aspirating the CBS into the sample holding line followed by pulling the buffer into the sample holding line. The resulting dispersion gradient was immediately injected at a flow rate of 50 μl/min through the SPR sensing region containing the bound ligand.\nFIGS. 16-18 will be referenced with regard to the method of determining binding competitive analysis. FIG. 16 reflects the relative concentrations of analyte when performing a binding competition analysis.\nIn contrast, the relative concentration of CBS will increase as a dispersion gradient during the competitive analysis.\nThe binding response curves of FIG. 17 were prepared by injecting two samples. […]", "data": [{"smiles": "NS(=O)(=O)c1ccc(C(=O)O)cc1", "note": "[CBS, 4-carboxy-benzenesulfonamide]", "values": [{"measurement": "binding of CBS to the ligand in the presence of Furosemide (subtracted binding interaction curves, FIG. 18)", "setting": "immobilized Carbonic anhydrase II, constant Furosemide, CBS dispersion gradient, Furosemide control curve subtracted", "value": "no binding"}, {"measurement": "qualitative analysis of binding interaction curve of CBS/Furosemide dispersion gradient (FIG. 17, lines 1 and 3)", "setting": "no control subtraction, curve remains substantially steady state", "value": "does not compete and does not contribute to the binding interaction"}]}]}
